In patent US20260125382A1, “COMPOUNDS FOR INHIBITING OR DEGRADING CDK2 AND/OR CDK9 AND MEDICINAL USE THEREOF” (KOREA RESEARCH INSTITUTE OF CHEMICAL TECHNOLOGY, priority 2022, published 2026):

Columns and labels:
[1] = target: T1, CDK9 (Homo sapiens, UniProt P50750); experiment: CDK protein degradation activity (Western blotting), CDK9; type: cell-based; details: MDA-MB-231 cells, 16 hours, Western blot
T1 construct: endogenous in cells; host or cells: MDA-MB-231
Procedure, shortened: (§1)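 MDA-MB-231 cells treated 16 h with compound at 100 nM, 1 μM or 10 μM, with DMSO as control. Lysates run on SDS-PAGE and immunoblotted for CDK2, CDK9 and tubulin; band levels quantified by densitometry.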

[2] = target: T2, CDK2 (Homo sapiens, UniProt P24941); experiment: CDK protein degradation activity (Western blotting), CDK2; type: cell-based; details: MDA-MB-231 cells, 16 hours, Western blot
T2 construct: endogenous in cells; host or cells: MDA-MB-231
Procedure, shortened: as §1

T1 sequence (P50750 whole entry): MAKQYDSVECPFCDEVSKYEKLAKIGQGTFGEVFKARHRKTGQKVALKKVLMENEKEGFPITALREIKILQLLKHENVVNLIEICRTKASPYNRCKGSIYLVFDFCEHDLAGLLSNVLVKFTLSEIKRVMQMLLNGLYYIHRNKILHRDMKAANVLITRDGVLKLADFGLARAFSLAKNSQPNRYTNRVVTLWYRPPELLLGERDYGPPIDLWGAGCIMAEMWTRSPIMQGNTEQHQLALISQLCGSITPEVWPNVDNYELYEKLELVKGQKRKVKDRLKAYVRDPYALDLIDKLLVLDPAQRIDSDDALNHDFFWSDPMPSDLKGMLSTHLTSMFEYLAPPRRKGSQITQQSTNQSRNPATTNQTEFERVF

| Compound | Enzyme degradation CDK9 (% remaining) @ 0.1 μM [1] | Enzyme degradation CDK9 (% remaining) @ 1 μM [1] | Enzyme degradation CDK9 (% remaining) @ 10 μM [1] | Enzyme degradation CDK2 (% remaining) @ 0.1 μM [2] | Enzyme degradation CDK2 (% remaining) @ 1 μM [2] | Enzyme degradation CDK2 (% remaining) @ 10 μM [2] |
| --- | --- | --- | --- | --- | --- | --- |
| O=C1CC[C@H](N2C(=O)c3cccc(CCCCN4CCC(CN5CCN(c6ccc(Nc7ncnc8c7ncn8[C@H]7C[C@@H](NC(=O)c8cccc(C(F)(F)F)n8)C7)cc6)CC5)CC4)c3C2=O)C(=O)N1 [Compound 427, N-((1s,3s)-3-(6-((4-(4-((1-(4-(2-(2,6-dioxopiperidin-3-yl)-1,3-dioxoisoindolin-4-yl)butyl)piperidin-4-yl)methyl)piperazin-1-yl)phenyl)amino)-9H-purin-9-yl)cyclobutyl)-6-(trifluoromethyl)picolinamide] | 0% | 0% | 20% | 20/20/20% | 20/20/20% | 20/20/20% |
| Cc1cccc(C(=O)NC2CC(n3cnc4c(NCCC5CCN(CC6CCN(c7ccc8nnn([C@H]9CCC(=O)NC9=O)c(=O)c8c7)CC6)CC5)ncnc43)C2)n1 (stereo partly drawn) [Compound 304, N-((1s,3s)-3-(6-((2-(1-((1-(3-(2,6-dioxopiperidin-3-yl)-4-oxo-3,4-dihydrobenzo[d][1,2,3]triazin-6-yl)piperidin-4-yl)methyl)piperidin-4-yl)ethyl)amino)-9H-purin-9-yl)cyclobutyl)-6-methylpicolinamide] | 20% | 0% | 0% | 20% | 30% | 50% |
| Cc1cccc(C(=O)N[C@H]2C[C@H](n3cnc4c(NCC5CCN(CC6CCN(C(=O)CNc7cccc8c7C(=O)N(C7CCC(=O)NC7=O)C8=O)CC6)CC5)ncnc43)C2)n1 (stereo partly drawn) [Compound 75, N-((1r,3r)-3-(6-(((1-((1-((2-(2,6-dioxopiperidin-3-yl)-1,3-dioxoisoindolin-4-yl)glycyl)piperidin-4-yl)methyl)piperidin-4-yl)methyl)amino)-9H-purin-9-yl)cyclobutyl)-6-methylpicolinamide] | 0% | 0% | 10% | 20% | 10% | 30% |
| Cc1cccc(C(=O)N[C@H]2C[C@@H](n3cnc4c(NCCC5CCN(CC6CCN(C(=O)CCNc7ccc8c(c7)C(=O)N([C@H]7CCC(=O)NC7=O)C8=O)CC6)CC5)ncnc43)C2)n1 (racemic) [Compound 310, N-((1s,3s)-3-(6-((2-(1-((1-(3-((2-(2,6-dioxopiperidin-3-yl)-1,3-dioxoisoindolin-5-yl)amino)propanoyl)piperidin-4-yl)methyl)piperidin-4-yl)ethyl)amino)-9H-purin-9-yl)cyclobutyl)-6-methylpicolinamide] | 40% | 0% | 0% | 100% | 70% | 100% |
| O=C1CC[C@H](N2C(=O)c3ccc(N4CCC5(CC4)CC(N4CCN(c6ccc(Nc7ncnc8c7ncn8[C@H]7C[C@@H](NC(=O)Cc8ccccc8)C7)cc6)CC4)C5)cc3C2=O)C(=O)N1 [Compound 210, N-((1s,3s)-3-(6-((4-(4-(7-(2-(2,6-dioxopiperidin-3-yl)-1,3-dioxoisoindolin-5-yl)-7-azaspiro[3.5]nonan-2-yl)piperazin-1-yl)phenyl)amino)-9H-purin-9-yl)cyclobutyl)-2-phenylacetamide] | 10% | 0% | 0% | 30/30/30% | 30/30/30% | 30/30/30% |
| Cc1cccc(C(=O)N[C@H]2C[C@@H](n3cnc4c(NC5CCN(CCC6CCN(c7ccc8c(c7)C(=O)N([C@H]7CCC(=O)NC7=O)C8=O)CC6)CC5)ncnc43)C2)n1 [Compound 35, N-((1s,3s)-3-(6-((1-(2-(1-(2-(2,6-dioxopiperidin-3-yl)-1,3-dioxoisoindolin-5-yl)piperidin-4-yl)ethyl)piperidin-4-yl)amino)-9H-purin-9-yl)cyclobutyl)-6-methylpicolinamide] | 0% | 10% | 10% | 100% | 60% | 60% |

Continued, values first:

| Enzyme degradation CDK9 (% remaining) @ 0.1 μM [1] | Enzyme degradation CDK9 (% remaining) @ 1 μM [1] | Enzyme degradation CDK9 (% remaining) @ 10 μM [1] | Enzyme degradation CDK2 (% remaining) @ 0.1 μM [2] | Enzyme degradation CDK2 (% remaining) @ 1 μM [2] | Enzyme degradation CDK2 (% remaining) @ 10 μM [2] | Compound |
| --- | --- | --- | --- | --- | --- | --- |
| 0/0/0% | 0/0/0% | 0/0/0% | 20/20/20% | 20/20/20% | 20/20/20% | Cc1cccc(C(=O)NC2CC(n3cnc4c(Nc5ccc(N6CCN(CC7CCN(C(=O)COc8ccc([C@@H]9CCC(=O)NC9=O)cc8)CC7)CC6)cc5)ncnc43)C2)n1 (stereo partly drawn) [Compound 443, N-((1s,3s)-3-(6-((4-(4-((1-(2-(4-(2,6-dioxopiperidin-3-yl)phenoxy)acetyl)piperidin-4-yl)methyl)piperazin-1-yl)phenyl)amino)-9H-purin-9-yl)cyclobutyl)-6-methylpicolinamide] |
| 0/0/0% | 0/0/0% | 0/0/0% | 10/10/10% | 10/10/10% | 10/10/10% | O=C1CC[C@H](n2nnc3ccc(N4CCC(CN5CCN(c6ccc(Nc7ncnc8c7ncn8C7CC(NC(=O)c8cccc(F)n8)C7)cc6)CC5)CC4)cc3c2=O)C(=O)N1 (stereo partly drawn) [Compound 429, N-((1s,3s)-3-(6-((4-(4-((1-(3-(2,6-dioxopiperidin-3-yl)-4-oxo-3,4-dihydrobenzo[d][1,2,3]triazin-6-yl)piperidin-4-yl)methyl)piperazin-1-yl)phenyl)amino)-9H-purin-9-yl)cyclobutyl)-6-fluoropicolinamide] |
| 0% | 0% | 10% | 50% | 60% | 70% | O=C1CC[C@H](N2C(=O)c3cc(F)c(N4CCC(C(=O)N5CCC(CN6CCN(c7ccc(Nc8ncnc9c8ncn9C8CC(NC(=O)Cc9ccccc9)C8)cc7)CC6)CC5)CC4)cc3C2=O)C(=O)N1 (stereo partly drawn) [Compound 456, N-((1s,3s)-3-(6-((4-(4-((1-(1-(2-(2,6-dioxopiperidin-3-yl)-6-fluoro-1,3-dioxoisoindolin-5-yl)piperidin-4-carbonyl)piperidin-4-yl)methyl)piperazin-1-yl)phenyl)amino)-9H-purin-9-yl)cyclobutyl)-2-phenylacetamide] |
